This is an account of results in the RepoRT retention time repository.

The structures appear in SMILES notation.

This series in a line: HILIC, Merck SeQuant ZIC-HILIC, 25 °C, 0.25 mL/min; A: water + 16 mM ammonium formate; B: acetonitrile + 0.1% formic acid, pH 3; gradient (min/%B) 0/97 2/97 10/70 15/10 17/10 18/97 25/97. The settings on record: stereoisomer not certain.
As to `CC12CCC(=O)C=C1CCC1C2C(=O)CC2(C)C1CCC2(O)C(=O)CO` (configuration not stated) [CORTISONE], the LC retention time stood at 1.8 min.

Regarding `CN(CC(=O)O)C(=N)N` [CREATINE], the LC retention time amounted to 13.9 min.

Turning to `CN1CC(=O)NC1=N` [CREATININE], the LC retention time amounted to 11.7 min.

Regarding `Nc1nc2c(ncn2C2OC3COP(=O)(O)OC3C2O)c(=O)[nH]1` (configuration not stated) [CYCLIC GMP], the LC retention time was determined as 13.4 min.

In the case of `NC(CS)C(=O)NCC(=O)O` (configuration not stated) [CYS-GLY_2M], the LC retention time was 16.3 min.

Turning to `NC(CCSCC(N)C(=O)O)C(=O)O` (configuration not stated) [CYSTATHIONINE], the LC retention time was found to be 15.4 min.

On to `NCCS` [CYSTEAMINE], for which the LC retention time was 16.9 min.

For the molecule `NC(CSSCC(N)C(=O)O)C(=O)O` (configuration not stated) [CYSTINE], the LC retention time is 15.4 min.

`Nc1ccn(C2OC(CO)C3OP(=O)(O)OC32)c(=O)n1` (configuration not stated) [CYTIDINE 2'-3'-CYCLIC PHOSPHATE]: the LC retention time came out at 13.6 min.

With `Nc1ccn(C2OC(COP(=O)(O)OP(=O)(O)O)C(O)C2O)c(=O)n1` (configuration not stated) [CYTIDINE DIPHOSPHATE], the LC retention time worked out at 15.4 min.

On to `Nc1ccn(C2OC(COP(=O)(O)OP(=O)(O)OP(=O)(O)O)C(O)C2O)c(=O)n1` (configuration not stated) [CYTIDINE TRIPHOSPHATE], for which the LC retention time came to 15.9 min.

With `Nc1ccnc(=O)[nH]1` [CYTOSINE], the LC retention time was 12 min.

With `CN1C(=O)CCC1c1cccnc1` (configuration not stated) [Cotinine], the LC retention time amounted to 2.21 min.

Turning to `O=C[C@H](O)[C@H](O)CO` [D-(-)-Erythrose], the LC retention time came out at 8.22 min.

In the case of `O=CC(O)C1OC(=O)C(O)C1O` [D-GLUCURONOLACTONE], the LC retention time is 8.75 min.

Take `Nc1ncnc2c1ncn2C1CC(O)C(COP(=O)(O)O)O1` (configuration not stated) [DEOXYADENOSINE MONOPHOSPHATE]: the LC retention time came to 13.3 min.

Turning to `Nc1ncnc2c1ncn2C1CC(O)C(COP(=O)(O)OP(=O)(O)OP(=O)(O)O)O1` (configuration not stated) [DEOXYADENOSINE TRIPHOSPHATE], the LC retention time is 15.7 min.

Consider `Nc1ccn(C2CC(O)C(COP(=O)(O)O)O2)c(=O)n1` (configuration not stated) [DEOXYCYTIDINE MONOPHOSPHATE], for which the LC retention time worked out at 14.5 min.

For the molecule `Nc1ccn(C2CC(O)C(COP(=O)([O-])OP(=O)([O-])[O-])O2)c(=O)n1` (configuration not stated) [DEOXYCYTIDINE-DIPHOSPHATE], the LC retention time was 15.2 min.

As for `O=c1ccn(C2CC(O)C(COP(=O)(O)O)O2)c(=O)[nH]1` (configuration not stated) [DEOXYURIDINE-MONOPHOSPHATE], the LC retention time is 13.4 min.

For the molecule `O=c1ccn(C2CC(O)C(CO)O2)c(=O)[nH]1` (configuration not stated) [DEOXYURIDINE], the LC retention time was found to be 2.45 min.

With `CC1NC(=O)NC1CCCCCC(=O)O` (configuration not stated) [DETHIOBIOTIN], the LC retention time turned out to be 2.13 min.

Consider `Nc1nc2c(ncn2C2CC(O)C(COP(=O)(O)OP(=O)(O)O)O2)c(=O)[nH]1` (configuration not stated) [DGDP], for which the LC retention time was determined as 15.2 min.

`Nc1nc2c(ncn2C2CC(O)C(COP(=O)(O)OP(=O)(O)OP(=O)(O)O)O2)c(=O)[nH]1` (configuration not stated) [DGTP]: the LC retention time was 15.7 min.

Regarding `CCCCCCCCCC(=O)OCC(COP(=O)([O-])OCC[N+](C)(C)C)OC(=O)CCCCCCCCC` (configuration not stated) [DIDECANOYL-GLYCEROPHOSPHOCHOLINE], the LC retention time was 10.6 min.

As for `OCCNCCO` [DIETHANOLAMINE], the LC retention time is 13.1 min.

Take `Nc1nc2c(c(=O)[nH]1)N=C(CNc1ccc(C(=O)NC(CCC(=O)O)C(=O)O)cc1)CN2` (configuration not stated) [DIHYDROFOLATE]: the LC retention time was found to be 12.4 min.

Regarding `O=C1CC(C(=O)O)NC(=O)N1` (configuration not stated) [DIHYDROOROTATE], the LC retention time came out at 10.6 min.

As to `O=C1CCNC(=O)N1` [DIHYDROURACIL], the LC retention time came to 2.13 min.

For `O=C(CO)COP(=O)(O)O` [DIHYDROXYACETONE PHOSPHATE], the LC retention time came to 14 min.

For the molecule `CCCCCCCCCCCCCCCC(=O)OCC(COP(=O)(O)OCCN)OC(=O)CCCCCCCCCCCCCCC` (configuration not stated) [DIPALMITOYL-PHOSPHOETHANOLAMINE], the LC retention time worked out at 9.35 min.

For `CCCCCCCCCCCCCCCC(=O)OCC(CO)OC(=O)CCCCCCCCCCCCCCC` (configuration not stated) [DIPALMITOYLGLYCEROL], the LC retention time was found to be 1.5 min.
